Measured values: patent US20110039926A1 (priority 2008, published 2011)

Legend:
[1] = test system: patients with Major Depressive Disorders (MDD); assay: multi-center, randomised, double-blinded, placebo-controlled 10 weeks study of F2695 in Major Depressive Disorders; type: in vivo, human
Excerpt: This was a multi-center, randomised, double-blinded, placebo-controlled 10 weeks study, assessing the efficacy and safety of F2695 flexible safety adapted dose in the treatment of patients with Major Depressive Disorders (MDD).
This study enrolled 563 patients who met the DSM-IV criteria for major depression with depression severity at the inclusion time assessed by HAM-D 17 score >22.
Patients were randomised to receive placebo or a flexible safety adapted dose by increasing progressively the administered doses using slow release capsules containing 25 or 50 mg of active drug (281 patients for placebo and 282 patients for F2695).
Placebo as well as F2695 were administered once a day as slow release capsules.
Slow release capsules were constituted of a plurality of minigranules each containing an active minisphere comprising a sucrose core containing F2695 as well as PVP as a binding agent; each minigranule being coated with a film of ethyl cellulose as described in EP 939 626. Placebo was constituted of the same slow release capsules of minigranules containing minispheres constituted only of a sucrose core.
The doses were administered in a dose escalation regimen during 10 days for initial titration. […]
Safety of F2695 was assessed by analysing: • frequency and intensity of adverse events as classified in the ICH guidelines (any adverse change from the subject's baseline condition, i.e. any subjective signs and symptoms, or change in a concomitant disease present at the selection visit, either considered or not related to the treatment) • suicidal risk evaluated by the MINI version 0.5 (modified Mini International Neuropsychiatric Interview) Efficiency of F2695 was assessed by: • MADRS Total score: change from baseline MMRM analysis (Full analysis data set) • MADRS Total score: change from baseline MMRM analysis (Per Protocol data set) • Responders and remitted patients compared to placebo group at Day 70 (end of the treatment period) Results from Safety

[2] = biological target: T1, norepinephrine uptake (Rattus norvegicus, UniProt Q63380); details: homogenate of rat hypothalamus; versus racemic milnacipran hydrochloride; cited from earlier work
T1 construct: from tissue; host or cells: rat hypothalamus homogenate
T1 sequence (Q63380 1-617): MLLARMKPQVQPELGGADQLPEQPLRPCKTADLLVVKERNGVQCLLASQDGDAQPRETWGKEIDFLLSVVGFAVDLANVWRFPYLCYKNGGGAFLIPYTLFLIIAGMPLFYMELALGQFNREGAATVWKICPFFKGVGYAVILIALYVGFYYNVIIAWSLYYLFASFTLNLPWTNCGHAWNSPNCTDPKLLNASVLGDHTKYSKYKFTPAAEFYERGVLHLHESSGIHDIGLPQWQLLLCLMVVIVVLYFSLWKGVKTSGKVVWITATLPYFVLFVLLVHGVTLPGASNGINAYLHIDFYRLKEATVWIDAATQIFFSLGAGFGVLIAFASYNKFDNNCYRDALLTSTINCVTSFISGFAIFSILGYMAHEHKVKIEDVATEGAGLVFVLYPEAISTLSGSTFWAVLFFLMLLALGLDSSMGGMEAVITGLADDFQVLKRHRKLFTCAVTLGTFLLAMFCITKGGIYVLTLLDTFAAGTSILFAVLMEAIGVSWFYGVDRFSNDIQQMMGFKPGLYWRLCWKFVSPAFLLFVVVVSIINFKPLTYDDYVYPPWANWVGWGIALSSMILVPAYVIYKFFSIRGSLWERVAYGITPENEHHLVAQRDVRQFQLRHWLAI

[3] = compared with other psychotropic products such as clomipramine and milnacipran; cited from earlier work
[4] = test system: patients suffering from psychiatric disorders (among them MDD); details: several trials, patients with psychiatric disorders (among them MDD); cited from earlier work

Row | Compound | patients presenting significant Suicidal Risk (%) ([1]; During the 6-weeks treatment and follow-up, versus 2.1% upon placebo) | patients presenting significant Suicidal Risk ([1]; During the 6-weeks treatment and follow-up, versus 6 patients upon placebo) [patient] | Suicidal Risk in patients suffering from depression ([1]; conclusion from the odds ratio obtained in a small population) | odds ratio (OR) of significant Suicidal Risk, F2695 versus placebo ([1]; logits method, confidence interval [0.0196, 1.3686]) | Insufficient response (withdrawn patients) ([1]; n = 282, number of patients) | Serious Adverse Event/Non Serious Adverse Event (withdrawn patients) ([1]; n = 282, number of patients) | Therapeutic Failure (withdrawn patients) ([1]; n = 282, number of patients) | Worsening of MDD (withdrawn patients) ([1]; n = 282, number of patients) | Significant Suicidal Risk (withdrawn patients) ([1]; n = 282, number of patients, suicidal risk evaluated by the MINI) | Insufficient response (withdrawn patients, %) ([1]; n = 282, percent of group) [%] | Serious Adverse Event/Non Serious Adverse Event (withdrawn patients, %) ([1]; n = 282, percent of group) [%] | Therapeutic Failure (withdrawn patients, %) ([1]; n = 282, percent of group) [%] | Worsening of MDD (withdrawn patients, %) ([1]; n = 282, percent of group) [%] | Significant Suicidal Risk (withdrawn patients, %) ([1]; n = 282, percent of group, suicidal risk evaluated by the MINI) [%] | efficiency in norepinephrine uptake relative to the racemate [2] | safety coefficient [3] | toxico-genomic profile [3] | odds ratio (OR) versus placebo, suicidal behaviour and ideation [4]
1 | CCN(CC)C(=O)[C@@]1(c2ccccc2)C[C@H]1CN.Cl [F2695, Z-(1S,2R)-2-(aminomethyl)-N,N-diethyl-1-phenyl cyclopropane carboxamide hydrochloride] | 0.4 | 1 | significantly reduced | 0.1637 | 16 | 26 | 22 | 11 | 1 | 5.7 | 9.2 | 7.8 | 3.9 | 0.4 | two | significantly better | superior | –
2 | CN(C)CCC[C@@]1(c2ccc(F)cc2)OCc2cc(C#N)ccc21 [escitalopram] | – | – | – | – | – | – | – | – | – | – | – | – | – | – | – | – | – | 1.57
